Results on 49 molecules are retold here after patent US9932325B2 (Denali Therapeutics Inc., priority 2015, dated 2018).

The target of the assay is LRRK2 G2019S enzyme (Homo sapiens (Human), UniProt Q5S007, G2019S). Nature of the assay: LRRK2 G2019S TR-FRET biochemical assay (LRRKtide substrate). The following applies: 134 μM ATP. The protocol:
Detection Reaction Conditions • 1× TR-FRET dilution buffer • 10 mM EDTA • 2 nM antibody • 23° C. reaction temperature • 10 μL total reaction volume
Compounds were prepared by initially diluting to 1 mM with DMSO. 35 μL of reference compound solution, 35 μL of test compound solution, and 35 μL HPE were successively added to the source plate (384-well assay plate, Labcyte). The plates were centrifuged at 2500 rpm for 1 minute and sealed in foil. […] The assay plate was centrifuged at 2500 rpm for 1 minute, and sealed with foil.
To perform the enzyme reaction, 5 μL of LRRKtide substrate and kinase mixture in assay buffer was added to all wells of the assay plate. The plate was centrifuged to concentrate the mixture at the bottom of the wells. The assay plate was incubated at 23° C. for 20 minutes. Following incubation, 5 μL of 2× ATP in assay buffer was added to each well, and plates were centrifuged to concentrate the mixture at the bottom of the wells. The plate was incubated at 23° C. for 60 minutes.
To perform the detection of the reaction, EDTA completely mixed in TR-FRET dilution buffer was added to antibody reagent. 10 μL of detection reagent was added to all wells of each well of the assay plate and the plate was centrifuged to concentrate the mixture at the bottom of the wells. The plate was then incubated at 23° C. for 60 minutes.

The structures appear in SMILES notation.

LRRK2 G2019S enzyme, sequence (Q5S007 whole entry G2019S): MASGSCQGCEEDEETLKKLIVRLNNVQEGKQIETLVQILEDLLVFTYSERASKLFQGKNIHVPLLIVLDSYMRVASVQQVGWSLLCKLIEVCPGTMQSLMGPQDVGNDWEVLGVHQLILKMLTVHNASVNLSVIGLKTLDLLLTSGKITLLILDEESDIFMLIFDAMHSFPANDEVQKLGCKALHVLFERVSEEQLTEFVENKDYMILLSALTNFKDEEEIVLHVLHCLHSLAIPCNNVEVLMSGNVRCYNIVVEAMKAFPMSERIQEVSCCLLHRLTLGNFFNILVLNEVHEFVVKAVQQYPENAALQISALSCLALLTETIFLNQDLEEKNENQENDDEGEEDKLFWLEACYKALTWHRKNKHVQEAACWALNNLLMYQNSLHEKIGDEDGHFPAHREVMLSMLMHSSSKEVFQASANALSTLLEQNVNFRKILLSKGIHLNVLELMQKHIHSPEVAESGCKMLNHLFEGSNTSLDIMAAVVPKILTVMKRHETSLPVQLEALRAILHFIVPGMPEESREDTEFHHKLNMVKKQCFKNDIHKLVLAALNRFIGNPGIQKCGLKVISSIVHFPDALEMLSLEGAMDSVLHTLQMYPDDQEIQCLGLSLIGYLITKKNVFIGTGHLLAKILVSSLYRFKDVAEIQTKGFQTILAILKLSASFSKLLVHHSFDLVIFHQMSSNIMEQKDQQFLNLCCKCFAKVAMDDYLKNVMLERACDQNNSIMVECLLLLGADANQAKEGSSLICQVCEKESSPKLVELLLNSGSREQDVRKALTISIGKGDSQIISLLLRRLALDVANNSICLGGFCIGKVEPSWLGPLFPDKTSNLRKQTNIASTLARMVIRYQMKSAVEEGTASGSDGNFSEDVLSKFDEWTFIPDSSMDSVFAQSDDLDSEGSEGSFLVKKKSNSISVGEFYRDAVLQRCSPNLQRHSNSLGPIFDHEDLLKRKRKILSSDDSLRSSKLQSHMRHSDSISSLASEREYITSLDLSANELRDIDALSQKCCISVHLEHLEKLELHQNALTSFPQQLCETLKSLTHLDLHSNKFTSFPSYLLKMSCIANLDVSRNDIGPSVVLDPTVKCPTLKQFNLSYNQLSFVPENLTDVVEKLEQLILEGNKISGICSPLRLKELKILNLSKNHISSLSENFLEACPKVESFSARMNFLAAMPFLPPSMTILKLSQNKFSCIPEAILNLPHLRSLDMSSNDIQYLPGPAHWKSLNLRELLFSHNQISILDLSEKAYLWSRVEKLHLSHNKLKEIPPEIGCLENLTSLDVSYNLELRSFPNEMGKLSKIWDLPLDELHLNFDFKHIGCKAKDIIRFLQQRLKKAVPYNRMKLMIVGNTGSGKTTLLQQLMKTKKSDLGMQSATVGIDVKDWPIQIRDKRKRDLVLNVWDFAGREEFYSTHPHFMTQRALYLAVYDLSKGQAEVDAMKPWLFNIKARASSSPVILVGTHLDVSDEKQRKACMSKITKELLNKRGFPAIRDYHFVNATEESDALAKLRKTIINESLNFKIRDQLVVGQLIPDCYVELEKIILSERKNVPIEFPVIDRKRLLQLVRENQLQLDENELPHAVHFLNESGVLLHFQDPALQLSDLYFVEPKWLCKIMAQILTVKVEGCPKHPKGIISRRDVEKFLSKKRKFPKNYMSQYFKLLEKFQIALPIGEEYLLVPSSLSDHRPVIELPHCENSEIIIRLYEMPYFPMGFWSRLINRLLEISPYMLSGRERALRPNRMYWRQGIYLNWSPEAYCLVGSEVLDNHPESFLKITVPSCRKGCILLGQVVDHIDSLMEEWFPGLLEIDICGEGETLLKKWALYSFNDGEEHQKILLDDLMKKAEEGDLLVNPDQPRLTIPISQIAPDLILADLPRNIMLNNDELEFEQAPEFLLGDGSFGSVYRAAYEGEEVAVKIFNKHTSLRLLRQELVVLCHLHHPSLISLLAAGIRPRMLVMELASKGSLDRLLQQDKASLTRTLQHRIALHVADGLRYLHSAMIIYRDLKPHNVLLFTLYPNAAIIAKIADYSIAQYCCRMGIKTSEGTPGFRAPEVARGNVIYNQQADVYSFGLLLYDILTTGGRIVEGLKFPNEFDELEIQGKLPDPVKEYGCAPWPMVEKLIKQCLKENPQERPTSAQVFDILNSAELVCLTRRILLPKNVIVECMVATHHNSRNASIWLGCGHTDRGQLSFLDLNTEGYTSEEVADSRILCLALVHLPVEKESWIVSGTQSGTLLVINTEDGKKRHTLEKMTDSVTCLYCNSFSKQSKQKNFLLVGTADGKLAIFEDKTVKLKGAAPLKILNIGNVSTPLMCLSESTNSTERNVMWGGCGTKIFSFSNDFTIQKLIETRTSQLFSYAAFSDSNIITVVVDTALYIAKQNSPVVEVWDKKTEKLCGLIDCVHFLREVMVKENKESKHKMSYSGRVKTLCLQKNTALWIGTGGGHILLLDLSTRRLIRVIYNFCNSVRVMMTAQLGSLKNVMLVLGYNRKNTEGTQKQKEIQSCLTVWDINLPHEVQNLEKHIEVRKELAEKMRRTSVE

As for `CCNc1nc(Nc2cn(C3(C)CCOC3=O)nc2C)ncc1C(F)(F)F` (single isomer, unassigned) [Compound 125], the IC50 was under 30 nM.
The result for `CCNc1nc(Nc2cc(N3CCCS3(=O)=O)nn2C2CC2)ncc1Br` [Compound 159] reads under 30 nM; that for `CNc1nc(Nc2cnn(C3C[C@@H]4C[C@@H]4C3)c2C)ncc1C(F)(F)F` (stereo partly shown) [Compound 4], under 30 nM.
Molecule `CNc1nc(Nc2cnn(C3CCCC3(C)O)c2C)ncc1C(F)(F)F` (single isomer, unassigned) [Compound 31] gave an IC50 of 30 to 60 nM.
`Cc1nn(C(C)(C)C#N)cc1Nc1ncc(Cl)c(NC2CC2)n1` [Compound 72]: the IC50 is under 30 nM.
Turning to `CCNc1nc(Nc2cnn(C3CCCN(CC(F)F)C3)c2C)ncc1C(F)(F)F` (single isomer, unassigned) [Compound 116], the concentration for half-maximal inhibition (IC50) was under 30 nM.
`CCNc1nc(Nc2cnn3c2CC(C#N)C3)ncc1C(F)(F)F` (single isomer, unassigned) [Compound 52B] showed an IC50 of under 30 nM.
Consider `Cc1c(Nc2ncc(C(F)(F)F)c(NC3CC3)n2)cnn1[C@H]1C[C@H](C#N)C1` [Compound 21], for which the IC50 was under 30 nM.
The result for `CCNc1nc(Nc2cn(C3(C)CCOC3=O)nc2C2CC2)ncc1Br` (single isomer, unassigned) [Compound 115] reads under 30 nM; that for `CCNc1nc(Nc2cc(C3(C)CCOC3=O)nn2C2CC2)ncc1Br` (stereo not shown) [Compound 151], under 30 nM.
The result for `[2H]C([2H])([2H])n1nc(C2(C)CCOC2=O)cc1Nc1ncc(C(F)(F)F)c(NC)n1` (stereo not shown) [Compound 175] reads under 30 nM.
For the molecule `[2H]C([2H])([2H])n1nc(C(C)(C)c2ncco2)cc1Nc1ncc(C(F)(F)F)c(NCC)n1` [Compound 82], the IC50 was under 30 nM.
The result for `[2H]C([2H])([2H])Nc1nc(Nc2cn(C(C#N)(C([2H])([2H])[2H])C([2H])([2H])[2H])nc2C([2H])([2H])[2H])ncc1C(F)(F)F` [Compound 40] reads under 30 nM; that for `CCNc1nc(Nc2cc(C3(C)CCn4ccnc43)nn2C2CC2)ncc1C(F)(F)F` (stereo not shown) [Compound 166], over 60 nM.
As to `CCNc1nc(Nc2cc(C(C)(C)O)nn2C2CC2)ncc1C(F)(F)F` [Compound 134], the concentration for half-maximal inhibition (IC50) was under 30 nM.
Regarding `CCNc1nc(Nc2cc(C(C)=O)nn2C2CC2)ncc1C(F)(F)F` [Compound 135], the IC50 is over 60 nM.
`COc1nc(Nc2cn(C3C[C@H]3C#N)nc2C2CC2)ncc1Br` (single isomer, unassigned) [Compound 213] displayed an IC50 of under 30 nM.
The result for `Cc1nn(C(C)(C)C#N)cc1Nc1ncc(C(F)(F)F)c(NCC(F)F)n1` [Compound 59] reads under 30 nM; that for `CCNc1nc(Nc2cn(C3C[C@@H]3C#N)nc2Cl)ncc1C(F)(F)F` (single isomer, unassigned) [Compound 206], under 30 nM; that for `CCNc1nc(Nc2cnn(C3CN(CC)CCC3(F)F)c2Cl)ncc1C(F)(F)F` (single isomer, unassigned) [Compound 205], under 30 nM.
With `CCNc1nc(Nc2cn(C3C[C@@H]3C#N)nc2C2CC2)ncc1Br` (single isomer, unassigned) [Compound 214], the IC50 is under 30 nM.
As for `CCNc1nc(Nc2cc(C(C)(C)n3nccn3)nn2C)ncc1C(F)(F)F` [Compound 57], the IC50 was under 30 nM.
In turn, `Cc1nn(C(C)(C)C#N)cc1Nc1ncc(Br)c(NCC(F)F)n1` [Compound 73] showed an IC50 of under 30 nM.
`CCNc1nc(Nc2cnn3c2CC2(COC2)C3)ncc1C(F)(F)F` [Compound 20] gave an IC50 of under 30 nM.
As to `[2H]C([2H])([2H])n1nc([C@@]23C[C@@H]2COC3=O)cc1Nc1ncc(C(F)(F)F)c(NCC)n1` [Compound 184], the IC50 is under 30 nM.
Regarding `[2H]C([2H])([2H])N1CCC(n2cc(Nc3ncc(C(F)(F)F)c(NCC)n3)c(C)n2)C1=O` (stereo not shown) [Compound 25], the IC50 was under 30 nM.
On to `CNc1nc(Nc2cnn(C3CCCC3(C)O)c2C)ncc1C(F)(F)F` (single isomer, unassigned) [Compound 30], for which the IC50 fell in the range of 30 to 60 nM.
`CCNc1nc(Nc2cn(Cc3ccon3)nc2C2CC2)ncc1C(F)(F)F` [Compound 94] came in with a 50% inhibitory concentration (IC50) of under 30 nM.
With `CCNc1nc(Nc2cc(C(C)n3nccn3)nn2C2CC2)ncc1C(F)(F)F` (stereo not shown) [Compound 137], the IC50 is under 30 nM.
`CCNc1nc(Nc2cc(C(C)(C)O)nn2C2CCC2)ncc1C(F)(F)F` [Compound 191] yielded a 50% inhibitory concentration (IC50) of under 30 nM.
Molecule `[2H]C([2H])([2H])n1nc(C2(C)CCOC2=O)cc1Nc1ncc(C(F)(F)F)c(NCC)n1` (stereo not shown) [Compound 174] showed an IC50 of under 30 nM.
Regarding `CCNc1nc(Nc2cnn3c2CC(C#N)C3)ncc1C(F)(F)F` (single isomer, unassigned) [Compound 52A], the IC50 was under 30 nM.
On to `CCNc1nc(Nc2cn(C3C[C@@H]3C#N)nc2C2CC2)ncc1C(F)(F)F` (stereo partly shown) [Compound 107], for which the IC50 is under 30 nM.
`CCNc1nc(Nc2cc(C(C)(C)S(C)(=O)=O)nn2C2CC2)ncc1C(F)(F)F` [Compound 139] gave an IC50 of under 30 nM.
For the molecule `CCNc1nc(Nc2cnn(C3CN(CC)CCC3(F)F)c2Cl)ncc1C(F)(F)F` (single isomer, unassigned) [Compound 204], the IC50 was under 30 nM.
Regarding `CCNc1nc(Nc2cc(C3(C)CCn4ncnc43)nn2C2CC2)ncc1C(F)(F)F` (stereo not shown) [Compound 171], the IC50 was over 60 nM.
`CCNc1nc(Nc2cc(N3CCCC3=O)nn2C2CC2)ncc1C(F)(F)F` [Compound 153, 1-(1-cyclopropyl-5-((4-(ethylamino)-5-(trifluoromethyl)pyrimidin-2-yl)amino)-1H-pyrazol-3-yl)pyrrolidin-2-one]: the half-maximal inhibitory concentration (IC50) was under 30 nM.
Regarding `CNc1nc(Nc2cnn(C3CC4(COC4)C3)c2Cl)ncc1C(F)(F)F` [Compound 13], the half-maximal inhibitory concentration (IC50) was under 30 nM.
In the case of `COc1nc(Nc2cc(C(C)(C)n3nccn3)nn2C2CC2)ncc1Br` [Compound 157], the IC50 lay in the range of 30 to 60 nM.
The result for `CCNc1nc(Nc2ccnn2[C@H]2C[C@H](O)C2)ncc1C(F)(F)F` [Compound 180] reads 30 to 60 nM; that for `CNc1nc(Nc2cn(C(C)(C)C#N)nc2C)ncc1Br` [Compound 42], under 30 nM.
For the molecule `CNc1nc(Nc2cnn(C3CC4CCC(C3)N4C)c2C)ncc1C(F)(F)F` (stereo not shown) [Compound 1], the IC50 is under 30 nM.
In the case of `CNc1nc(Nc2cc(C(C)(C)n3nccn3)nn2C2CC2)ncc1C(F)(F)F` [Compound 77], the IC50 was under 30 nM.
The result for `[2H]C([2H])([2H])Nc1nc(Nc2cn(C(C)(C)C#N)nc2C([2H])([2H])[2H])ncc1C(F)(F)F` [Compound 63] reads under 30 nM.
As to `CCNc1nc(Nc2cc(C(C)(C)OC)nn2C2CCC2)ncc1C(F)(F)F` [Compound 192], the IC50 was under 30 nM.
`Cc1nn(C(C)(C)C#N)cc1Nc1ncc(Br)c(NC2CC2)n1` [Compound 66] displayed an IC50 of under 30 nM.
As for `N#C[C@@H]1CC1n1cc(Nc2ncc(C(F)(F)F)c(NCC(F)F)n2)c(C2CC2)n1` (single isomer, unassigned) [Compound 210], the IC50 was under 30 nM.
The result for `CNc1nc(Nc2cn(C3(C)CCCC3=O)nc2C)ncc1C(F)(F)F` (stereo not shown) [Compound 195] reads under 30 nM; that for `[2H]C([2H])([2H])n1nc(C2CCOCC2)cc1Nc1ncc(C(F)(F)F)c(NCC)n1` [Compound 193], 30 to 60 nM.
